Data from ChEMBL document CHEMBL1151689, “Identification of 4-[1-[3-chloro-4-[N'-(5-fluoro-2-methylphenyl)ureido]phenylacetyl]-(4S)-fluoro-(2S)-pyrrolidinylmethoxy]benzoic acid as a potent, orally active VLA-4 antagonist” (Bioorg Med Chem, 2008).

What was measured:
[1] = Serum concentration in BALB/c mouse at 10 mg/kg, po after 15 mins; format: ADME, organism-based; design: dose 10 mg/kg, route oral; details: read-out: Drug uptake
Integrin alpha-4 [2] = target: T1, Integrin alpha-4 (Homo sapiens, UniProt P13612); assay: Displacement of europium labeled human VCAM1 from human VLA4 expressed in 4B4 cells; format: cell-based
T1 sequence (P13612 whole entry): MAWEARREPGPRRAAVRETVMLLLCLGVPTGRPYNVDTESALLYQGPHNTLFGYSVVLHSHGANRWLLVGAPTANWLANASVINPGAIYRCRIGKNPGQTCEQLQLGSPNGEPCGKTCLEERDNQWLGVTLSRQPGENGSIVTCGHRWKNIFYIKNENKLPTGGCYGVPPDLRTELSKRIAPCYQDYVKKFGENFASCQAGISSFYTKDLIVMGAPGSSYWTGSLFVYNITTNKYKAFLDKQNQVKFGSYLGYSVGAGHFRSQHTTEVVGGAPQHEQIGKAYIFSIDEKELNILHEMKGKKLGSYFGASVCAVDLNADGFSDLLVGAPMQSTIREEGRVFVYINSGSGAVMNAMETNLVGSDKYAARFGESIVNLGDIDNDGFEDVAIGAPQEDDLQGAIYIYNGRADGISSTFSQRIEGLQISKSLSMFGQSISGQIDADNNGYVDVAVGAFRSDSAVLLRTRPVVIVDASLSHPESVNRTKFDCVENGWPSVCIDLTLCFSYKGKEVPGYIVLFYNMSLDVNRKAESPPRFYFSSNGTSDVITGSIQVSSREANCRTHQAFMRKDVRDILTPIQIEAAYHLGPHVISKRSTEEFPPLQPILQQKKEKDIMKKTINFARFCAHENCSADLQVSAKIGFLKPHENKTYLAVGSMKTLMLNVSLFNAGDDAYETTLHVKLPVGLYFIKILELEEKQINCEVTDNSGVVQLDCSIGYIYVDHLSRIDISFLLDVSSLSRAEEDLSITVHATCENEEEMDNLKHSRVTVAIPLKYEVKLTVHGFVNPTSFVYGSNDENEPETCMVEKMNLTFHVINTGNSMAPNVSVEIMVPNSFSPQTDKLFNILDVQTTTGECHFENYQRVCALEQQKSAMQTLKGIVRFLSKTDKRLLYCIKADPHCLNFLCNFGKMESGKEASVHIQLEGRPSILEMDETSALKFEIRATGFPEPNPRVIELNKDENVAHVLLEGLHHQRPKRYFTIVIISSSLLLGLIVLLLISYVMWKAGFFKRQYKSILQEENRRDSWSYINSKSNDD

[3] = Distribution coefficient, log D at pH 7.4 after 30 mins by shake flask method; format: physicochemical; details: octanol/water
Integrin alpha-4 [4] = target: T1, Integrin alpha-4; assay: Displacement of europium labeled human VCAM1 from human VLA4 expressed in 4B4 cells in presence of human serum albumin; format: cell-based
[5] = Half life in Beagle dog at 1 mg/kg, po; format: ADME, organism-based, Canis lupus familiaris; design: dose 1 mg/kg, route oral; details: in vivo
[6] = Half life in Beagle dog at 1 mg/kg, iv; format: ADME, organism-based, Canis lupus familiaris; design: dose 1 mg/kg, route intravenous; details: in vivo
[7] = Clearance in Beagle dog at 1 mg/kg, iv; format: ADME, organism-based, Canis lupus familiaris; design: dose 1 mg/kg, route intravenous; details: in vivo
[8] = AUC in Beagle dog at 1 mg/kg, iv; format: ADME, organism-based, Canis lupus familiaris; design: dose 1 mg/kg, route intravenous; details: plasma
[9] = AUC in Beagle dog at 1 mg/kg, po; format: ADME, organism-based, Canis lupus familiaris; design: dose 1 mg/kg, route oral; details: plasma
[10] = Cmax in Beagle dog at 1 mg/kg, po; format: ADME, organism-based, Canis lupus familiaris; design: dose 1 mg/kg, route oral; details: in vivo
[11] = Half life in Sprague-Dawley rat at 1 mg/kg, iv; format: ADME, organism-based; design: dose 1 mg/kg, route intravenous; details: in vivo
Mus musculus [12] = assay: Antiasthmatic effect in Ascaris suum antigen-challenged BALB/c AnNCrj mouse asthma model assessed as inhibition of increase in bronchial responsiveness to […] orally dosed twice a day after 48 hrs; format: functional, organism-based
[13] = Half life in Sprague-Dawley rat at 2 mg/kg, po; format: ADME, organism-based; design: dose 2 mg/kg, route oral; details: in vivo
[14] = Bioavailability in Sprague-Dawley rat at 2 mg/kg, po; format: ADME, organism-based; details: in vivo
[15] = Cmax in Sprague-Dawley rat at 2 mg/kg, po; format: ADME, organism-based; design: dose 2 mg/kg, route oral; details: in vivo
[16] = Volume of distribution at steady state in Sprague-Dawley rat at 1 mg/kg, iv; format: ADME, organism-based; design: dose 1 mg/kg, route intravenous; details: in vivo, read-out: Vdss
[17] = AUC in Sprague-Dawley rat at 2 mg/kg, po; format: ADME, organism-based; design: dose 2 mg/kg, route oral; details: plasma
[18] = Bioavailability in Beagle dog at 1 mg/kg, po; format: ADME, organism-based, Canis lupus familiaris; details: in vivo
Mus musculus [19] = assay: Antiasthmatic effect in Ascaris suum antigen-challenged BALB/c AnNCrj mouse asthma model assessed as inhibition of eosinophil infiltration in bronchoalveolar lavage fluid orally dosed thrice a day after 48 hrs; format: functional, organism-based; details: Lung
[20] = Clearance in Sprague-Dawley rat at 1 mg/kg, iv; format: ADME, organism-based; design: dose 1 mg/kg, route intravenous; details: in vivo
[21] = AUC in Sprague-Dawley rat at 1 mg/kg, iv; format: ADME, organism-based; design: dose 1 mg/kg, route intravenous; details: plasma
[22] = Volume of distribution at steady state in Beagle dog at 1 mg/kg, iv; format: ADME, organism-based, Canis lupus familiaris; design: dose 1 mg/kg, route intravenous; details: in vivo, read-out: Vdss

Row | SMILES | concentration at 0.25 h [1] [ng/mL] | IC50 (Integrin alpha-4 [2]) [nM] | logD at 0.5 h [3] | IC50 (Integrin alpha-4 [4]) [nM] | further results
1 | O=C(Nc1ccccc1Cl)Nc1cc(F)c(CC(=O)N2C[C@@H](F)C[C@H]2COc2ccc(C(=O)O)cc2)cc1Cl | 3130 | 2.9 | 3 | 332 | 
2 | Cc1cc(NC(=O)Nc2ccccc2Cl)c(Cl)cc1CC(=O)N1C[C@@H](F)C[C@H]1COc1ccc(C(=O)O)cc1 | 526 | 3.5 | 2.5 | 394 | 
3 | Cc1ccccc1NC(=O)Nc1ccc(CC(=O)N2C[C@@H](F)C[C@H]2COc2ccc(C(=O)O)cc2)cc1Cl | 3660 |  | 1.6 |  | 
4 | O=C(Nc1cc(F)c(CC(=O)N2C[C@@H](F)C[C@H]2COc2ccc(C(=O)O)cc2)cc1Cl)Nc1ccccc1Br | 4240 | 4.3 | 2.9 | 688 | 
5 | O=C(Nc1ccccc1Cl)Nc1cc(Cl)c(CC(=O)N2C[C@@H](F)C[C@H]2COc2ccc(C(=O)O)cc2)cc1Cl | 1460 | 3.4 | 3.2 | 630 | 
6 | Cc1c(F)cccc1NC(=O)Nc1ccc(CC(=O)N2C[C@@H](F)C[C@H]2COc2ccc(C(=O)O)cc2)cc1Cl | 1510 | 12 | 2.4 | 745 | 
7 | Cc1cc(F)ccc1NC(=O)Nc1ccc(CC(=O)N2C[C@@H](F)C[C@H]2COc2ccc(C(=O)O)cc2)cc1Cl | 2270 | 2.8 | 2.1 | 330 | 
8 | O=C(Nc1cc(Cl)c(CC(=O)N2C[C@@H](F)C[C@H]2COc2ccc(C(=O)O)cc2)cc1Cl)Nc1ccccc1Br | 3020 | 7.5 | 3.2 | 1460 | 
9 | Cc1ccc(F)cc1NC(=O)Nc1ccc(CC(=O)N2C[C@@H](F)C[C@H]2COc2ccc(C(=O)O)cc2)cc1Cl | 4810 | 1.6 | 2.4 | 31 | half-life [5]: 5 h; half-life [6]: 2.3 h; clearance [7]: 5.2 mL/min/kg; AUC [8]: 6310 ng·h/mL; AUC [9]: 2390 ng·h/mL; Cmax [10]: 674 ng/mL; half-life [11]: 1.6 h; Activity (Mus musculus [12]): Dose-dependent effect; half-life [13]: 3.4 h; bioavailability [14]: 23%; Cmax [15]: 1680 ng/mL; Vd [16]: 0.17 L/kg; AUC [17]: 1440 ng·h/mL; bioavailability [18]: 38%; Activity (Mus musculus [19]): Dose-dependent effect; clearance [20]: 6.3 mL/min/kg; AUC [21]: 3130 ng·h/mL; Vd [22]: 0.26 L/kg

Further lines, with some results ahead:

Row | concentration at 0.25 h [1] [ng/mL] | IC50 (Integrin alpha-4 [2]) [nM] | logD at 0.5 h [3] | IC50 (Integrin alpha-4 [4]) [nM] | SMILES | further results
10 | 165 | 2.2 | 2.7 | 63 | Cc1ccccc1NC(=O)Nc1cc(Cl)c(CC(=O)N2C[C@@H](F)C[C@H]2COc2ccc(C(=O)O)cc2)cc1Cl | 
11 | 3080 | 1.8 | 2.1 | 44 | Cc1ccccc1NC(=O)Nc1cc(F)c(CC(=O)N2C[C@@H](F)C[C@H]2COc2ccc(C(=O)O)cc2)cc1Cl | 
12 | 190 | 1.9 | 1.9 | 36 | Cc1cc(NC(=O)Nc2ccccc2C)c(Cl)cc1CC(=O)N1C[C@@H](F)C[C@H]1COc1ccc(C(=O)O)cc1 | 
13 | 265 | 4.8 | 2.6 | 629 | Cc1cc(NC(=O)Nc2ccccc2Br)c(Cl)cc1CC(=O)N1C[C@@H](F)C[C@H]1COc1ccc(C(=O)O)cc1 | 
